Source: the SangsterLogP compilation

Tests used:
[1] = method code SF-AS, from DOI: 10.1016/0006-2952(93)90503-o, PMID: 8373444; conditions: pH 7.4
[2] = method code SF, from DOI: 10.1074/jbc.m009093200, PMID: 11092892; conditions: pH 7.4
[3] = method code G-HPLC, from DOI: 10.1016/s0045-6535(97)00024-6
[4] = method code SF, from DOI: 10.1021/jm4003632, PMID: 23662903; conditions: pH 7.4
[5] = method code SF-AS, from DOI: 10.1016/j.ejmech.2010.07.027, PMID: 20705371
[6] = method code SF-RC, from DOI: 10.1002/jlcr.3310, PMID: 26094722; conditions: pH 7.4
[7] = method code SF-RC, from PMID: 2883979; conditions: pH 10.0
[8] = method code SF-HPLC, from DOI: 10.1016/j.ejpb.2012.03.006, PMID: 22469554
[9] = not given; remark: listed apart in the source
[10] = method code SF-AS, from DOI: 10.1007/bf02857814, PMID: 1608986
[11] = method code SF-HPLC, from DOI: 10.1002/jps.2600840622; conditions: pH 7.0
[12] = method code SF-HPLC, from DOI: 10.1002/etc.5620170216
[13] = method code SF-HPLC, from Bhosale, A.; Agrawal, G.; Mishra, P. (2004). Preparation and characterization of mutual prodrugs of ibuprofen. Indian Journal of Pharmaceutical Sciences, 66, 158-163.; conditions: pH 1.2
[14] = not given; remark: listed apart in the source
[15] = method code SF-RC, from DOI: 10.1016/j.nucmedbio.2007.03.011, PMID: 17591556; conditions: pH 8.9
[16] = method code SF-HPLC, from DOI: 10.1023/a:1016462801968, PMID: 3334410
[17] = method code SF-AS, from DOI: 10.1016/0147-6513(87)90041-8, PMID: 3830021
[18] = not given; remark: listed apart in the source
[19] = method code SF-AS, from DOI: 10.1002/chin.197711219; conditions: pH 7.4
[20] = not given; remark: listed apart in the source

Question: Which logD [1] does the source give for O=C1OC(c2ccc(O)c(S(=O)(=O)O)c2)(c2ccc(O)c(S(=O)(=O)O)c2)c2c(Br)c(Br)c(Br)c(Br)c21 here?
Answer: Its logD is -0.55.

Question: For COC1=C(OC)C(=O)C(CCCCCCCCCCBr)=C(C)C1=O, which logD [2] is on record?
Answer: Its logD is 2.49.

Question: With c1ccc2nc3c4ccccc4c4ccccc4c3cc2c1 as the molecule, how does the logP [3] read?
Answer: The logP was 5.66.

Question: For CC(C)n1ncnc1-c1nc2c(s1)CCOc1cc(-c3cnn(CCO)c3)ccc1-2, which logD [4] is on record?
Answer: Its logD is 3.9.

Question: For CC(C)(C)c1cc(CN2CCOCC2)c(O)c(CN2CCOCC2)c1, which logP [5] is on record?
Answer: Its logP is 2.03.

Question: For CC(C)(C)n1ncc(OCc2cccc(Cn3cc(CCF)nn3)c2)c(Cl)c1=O, which logD [6] is on record?
Answer: Its logD is 2.54.

Question: For O=C(O)c1[nH]c2cc(Cl)cc(Cl)c2c1CN1CC(=O)N(c2cccc(OCCF)c2)C1=O, which logP is on record?
Answer: Its logP is 2.16.

Question: With CN1CCC(N(Cc2ccccc2)c2ccccc2)CC1 as the molecule, how does the logD [7] read?
Answer: Its logD is 2.6.

Question: Which logP [8] does the source give for O=C(CCCCCCCC(=O)Oc1ccc(O)cc1)Oc1ccc(O)cc1 here?
Answer: Its logP is 4.99.

Question: For O=C(CN1C(=O)c2ccccc2C1=O)N1CCN(Cc2ccc(I)cc2)CC1, which logP [9] is on record?
Answer: The logP was 3.6.

Question: For CCn1cc(C(=O)NC(CCCNC(=N)N)C(=O)OC)c(=O)c2ccc(C)nc21 (stereo unspecified), which logP [10] is on record?
Answer: The logP was 0.39.

Question: For CCCN1CCN(c2cc3c(cc2F)c(=O)c(C(=O)O)cn3CC)CC1, which logD [11] is on record?
Answer: The logD was 1.05.

Question: For c1ccc2cc3c(cc2c1)-c1cccc2cccc-3c12, which logP [12] is on record?
Answer: The logP was 6.11.

Question: For CC(C)Cc1ccc(C(C)C(=O)Oc2ccccc2C(N)=O)cc1 (stereo unspecified), which logD [13] is on record?
Answer: Its logD is 1.54.

Question: For CC[C@H]1C[C@]2(C)[C@@H](O)CC[C@H]2[C@@H]2CCc3cc(O)ccc3[C@@H]12, which logP [14] is on record?
Answer: The logP was 3.8.

Question: With CN(C(=O)CF)c1cccc(-c2ccnc3c(C(=O)c4cccs4)cnn23)c1 as the molecule, how does the logD [15] read?
Answer: The logD was 1.4.

Question: Which logP [16] does the source give for CC(C)(C)C(=O)OCC(COC(=O)C(C)(C)C)OCn1cnc2c(=O)[nH]c(N)nc21 here?
Answer: Its logP is 1.71.

Question: For COC(=O)CCN(CCC(=O)OC)c1ccc(/N=N/c2c(Cl)cc([N+](=O)[O-])cc2Br)cc1, which logP [17] is on record?
Answer: The logP was 4.1.

Question: For O=C1OC2(c3ccc(O)cc3Oc3cc(O)ccc32)c2ccccc21, which logP [18] is on record?
Answer: The logP was 4.3.

Question: Which logD [19] does the source give for O=C1C(=C2C=CN(CCN3CCOCC3)C=C2)C(=O)c2ccccc21 here?
Answer: The logD was 2.01.

Question: For COc1cc2c(N)nc(N3CCN(C(=O)OCC(C)(C)O)CC3)nc2c(OC)c1OC, which logP [20] is on record?
Answer: Its logP is 1.3.
